Source: ChEMBL document CHEMBL1201862, “PubChem BioAssay data set” (2004)
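Growth conditions: 96-well plates. Treatment: test compound, 48 hours, 5 concentrations. Analysis: linear interpolation between bracketing concentrations; unreached endpoints set to highest concentration. GI50 is the concentration that inhibits growth by half.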 Activity calls are given as the source filed them. Rule as the data show it: active = GI50 up to about 1.1 µM and inactive = higher.

Columns and labels:
Assay in all cases: NCI tumour cell line growth inhibition, 48 h
HOP-62 = system: HOP-62
M14 = system: M14
SK-MEL-5 = system: SK-MEL-5
SF-539 = system: SF-539
NCI-H226 = system: NCI-H226
SK-MEL-2 = system: SK-MEL-2
HCT-15 = system: HCT-15
A498 = system: A498
A549 = system: A549
MDA-MB-231 = system: MDA-MB-231
CAKI-1 = system: CAKI-1
SF-268 = system: SF-268
T47D = system: T47D
MDA-MB-435 = system: MDA-MB-435
COLO 205 = system: COLO 205
IGROV-1 = system: IGROV-1
SR = system: SR
OVCAR-4 = system: OVCAR-4
NCI/ADR-RES = system: NCI/ADR-RES
NCI-H522 = system: NCI-H522

Measured: GI50

C#CCOC(=O)C(=[N+]=[N-])C(=O)CC(C)C
inactive: HOP-62 > 10 µM | M14 > 10 µM | SK-MEL-5 > 10 µM | SF-539 > 10 µM | NCI-H226 > 10 µM | SK-MEL-2 > 10 µM | A498 > 10 µM | A549 > 10 µM | MDA-MB-231 > 10 µM | CAKI-1 > 10 µM | SF-268 > 10 µM | T47D > 10 µM | MDA-MB-435 > 10 µM | COLO 205 > 10 µM | IGROV-1 > 10 µM | SR > 10 µM | OVCAR-4 > 10 µM | NCI/ADR-RES > 10 µM
> 10 µM: HCT-15

Clc1ccc(C2=CCN3CC=C(c4ccc(Cl)cc4)C23)cc1
inactive: HOP-62 13.8 µM | M14 7.28 µM | SK-MEL-5 2.47 µM | SF-539 15.9 µM | NCI-H226 24 µM | SK-MEL-2 15.5 µM | A549 14.2 µM | NCI-H522 10.2 µM | MDA-MB-231 12.4 µM | CAKI-1 14.3 µM | SF-268 7.96 µM | T47D 12.7 µM | MDA-MB-435 10.7 µM | COLO 205 2.7 µM | IGROV-1 9.93 µM | SR 6.7 µM | OVCAR-4 8.26 µM | NCI/ADR-RES 12.2 µM
11.1 µM: HCT-15

Cc1cc(NS(=O)(=O)c2ccc(Nc3c4ccccc4nc4c(C(=O)NCCO)cccc34)cc2)no1
inactive: HOP-62 32.9 µM | M14 29 µM | SK-MEL-5 23.4 µM | SK-MEL-2 22.2 µM | A498 30.1 µM | A549 37.3 µM | NCI-H522 11.4 µM | MDA-MB-231 17.9 µM | CAKI-1 26.1 µM | SF-268 30.5 µM | T47D 19.7 µM | MDA-MB-435 24.7 µM | COLO 205 32.9 µM | IGROV-1 25.1 µM | SR 22.5 µM | OVCAR-4 29 µM | NCI/ADR-RES > 100 µM
24.9 µM: HCT-15

O=C1NC(NNc2ccccc2)=N/C1=C\c1ccccc1O
44.2 µM: HCT-15
inactive: HOP-62 48.4 µM | M14 97.1 µM | SF-539 77.6 µM | NCI-H226 86.1 µM | SK-MEL-2 75.2 µM | A498 45.9 µM | A549 72.6 µM | NCI-H522 80.4 µM | MDA-MB-231 68.2 µM | CAKI-1 63.1 µM | SF-268 > 100 µM | T47D 34.1 µM | MDA-MB-435 71.1 µM | COLO 205 > 100 µM | IGROV-1 89.1 µM | SR > 100 µM | OVCAR-4 50.9 µM | NCI/ADR-RES 29.6 µM

O=C1/C(=N/N=C(c2ccccc2)c2ccccc2)c2ccccc2-c2ccccc21
inactive: HOP-62 > 100 µM | M14 > 100 µM | SK-MEL-5 99.5 µM | SF-539 > 100 µM | NCI-H226 38.5 µM | SK-MEL-2 > 100 µM | A549 > 100 µM | NCI-H522 54.8 µM | MDA-MB-231 31.6 µM | CAKI-1 37.6 µM | SF-268 > 100 µM | T47D 32.8 µM | MDA-MB-435 > 100 µM | COLO 205 > 100 µM | IGROV-1 73.1 µM | SR 51.2 µM | OVCAR-4 77.3 µM | NCI/ADR-RES 54 µM
37.8 µM: HCT-15

CN(C(=O)C1=CCCCCC1)c1ccccc1I
39.6 µM: HCT-15
active: A498 0.201 µM
inactive: HOP-62 63.4 µM | M14 31.6 µM | SK-MEL-5 23.6 µM | SK-MEL-2 32.4 µM | A549 62.1 µM | MDA-MB-231 67.8 µM | CAKI-1 64.4 µM | SF-268 24.3 µM | T47D 23.7 µM | MDA-MB-435 40.2 µM | COLO 205 15.8 µM | IGROV-1 32.8 µM | SR 39 µM | OVCAR-4 18.2 µM | NCI/ADR-RES 25.6 µM

CC(C)(C)c1cc2c(O)c(c1)Cc1cc(C(C#N)(Cc3ccc4ccccc4c3)Cc3ccc4ccccc4c3)cc(c1O)Cc1cc(C(C)(C)C)cc(c1O)Cc1cc(C(C#N)(Cc3ccc4ccccc4c3)Cc3ccc4ccccc4c3)cc(c1O)C2
> 100 µM: HCT-15
inactive: HOP-62 > 100 µM | M14 > 100 µM | SK-MEL-5 > 100 µM | SF-539 > 100 µM | NCI-H226 > 100 µM | SK-MEL-2 > 100 µM | A498 > 100 µM | A549 > 100 µM | NCI-H522 > 100 µM | MDA-MB-231 > 100 µM | CAKI-1 > 100 µM | SF-268 > 100 µM | T47D > 100 µM | MDA-MB-435 > 100 µM | COLO 205 > 100 µM | IGROV-1 > 100 µM | SR 60.5 µM | OVCAR-4 > 100 µM | NCI/ADR-RES > 100 µM

COC(=O)c1c(O)ccc2c1c1c(n2Cc2ccccn2)C(=O)c2ccccc2C1=O
46 µM: HCT-15
inactive: HOP-62 26.7 µM | M14 > 100 µM | SK-MEL-5 50.5 µM | SF-539 17.1 µM | NCI-H226 70.1 µM | SK-MEL-2 42.7 µM | A498 > 100 µM | A549 29.8 µM | NCI-H522 15.8 µM | MDA-MB-231 > 100 µM | CAKI-1 80.5 µM | SF-268 35.9 µM | T47D 32 µM | MDA-MB-435 86.7 µM | COLO 205 14.5 µM | IGROV-1 26.4 µM | SR 22 µM | NCI/ADR-RES 41.3 µM
